Test results from ChEMBL document CHEMBL5257092, “Synthesis and biological evaluation of biaryl alkyl ethers as inhibitors of IDO1” (Bioorg Med Chem Lett, 2023).

How the values were obtained:
[1] = biological target: Tryptophan 2,3-dioxygenase (Homo sapiens, UniProt P48775); experiment: Inhibition of TDO (unknown origin) expressed in HEK cells; format: cell-based; settings: hek
[2] = biological target: Indoleamine 2,3-dioxygenase 1 (Homo sapiens, UniProt P14902); experiment: Inhibition of IDO1 (unknown origin) expressed in human HeLa cells; format: cell-based
Sequence of Indoleamine 2,3-dioxygenase 1 (P14902 whole entry): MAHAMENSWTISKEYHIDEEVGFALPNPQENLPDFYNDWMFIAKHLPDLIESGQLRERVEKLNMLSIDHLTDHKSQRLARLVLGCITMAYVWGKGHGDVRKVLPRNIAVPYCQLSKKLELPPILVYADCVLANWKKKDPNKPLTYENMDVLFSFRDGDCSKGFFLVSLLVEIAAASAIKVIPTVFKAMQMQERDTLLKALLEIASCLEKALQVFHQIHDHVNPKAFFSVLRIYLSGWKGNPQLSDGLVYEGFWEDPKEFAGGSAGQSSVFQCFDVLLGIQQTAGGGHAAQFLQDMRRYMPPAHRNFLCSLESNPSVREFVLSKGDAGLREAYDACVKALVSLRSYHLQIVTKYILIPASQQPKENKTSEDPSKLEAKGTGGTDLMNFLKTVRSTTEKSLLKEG

[3] = Metabolic stability in human liver microsomes assessed as compound remaining at 0.5 uM incubated for 10 mins relative to control; format: ADME, Microsome; settings: microsomes, 10 min, 0.5 µM
[4] = Metabolic stability in mouse liver microsomes assessed as compound remaining at 0.5 uM incubated for 10 mins relative to control; format: ADME, Microsome; settings: microsomes, 10 min, 0.5 µM
[5] = Metabolic stability in rat liver microsomes assessed as compound remaining at 0.5 uM incubated for 10 mins relative to control; format: ADME, Microsome; settings: microsomes, 10 min, 0.5 µM
[6] = biological target: Voltage-gated inwardly rectifying potassium channel KCNH2 (Homo sapiens, UniProt Q12809); experiment: Inhibition of hERG at 10 uM relative to control; format: toxicity; settings: 10 µM
Sequence of Voltage-gated inwardly rectifying potassium channel KCNH2 (Q12809 whole entry): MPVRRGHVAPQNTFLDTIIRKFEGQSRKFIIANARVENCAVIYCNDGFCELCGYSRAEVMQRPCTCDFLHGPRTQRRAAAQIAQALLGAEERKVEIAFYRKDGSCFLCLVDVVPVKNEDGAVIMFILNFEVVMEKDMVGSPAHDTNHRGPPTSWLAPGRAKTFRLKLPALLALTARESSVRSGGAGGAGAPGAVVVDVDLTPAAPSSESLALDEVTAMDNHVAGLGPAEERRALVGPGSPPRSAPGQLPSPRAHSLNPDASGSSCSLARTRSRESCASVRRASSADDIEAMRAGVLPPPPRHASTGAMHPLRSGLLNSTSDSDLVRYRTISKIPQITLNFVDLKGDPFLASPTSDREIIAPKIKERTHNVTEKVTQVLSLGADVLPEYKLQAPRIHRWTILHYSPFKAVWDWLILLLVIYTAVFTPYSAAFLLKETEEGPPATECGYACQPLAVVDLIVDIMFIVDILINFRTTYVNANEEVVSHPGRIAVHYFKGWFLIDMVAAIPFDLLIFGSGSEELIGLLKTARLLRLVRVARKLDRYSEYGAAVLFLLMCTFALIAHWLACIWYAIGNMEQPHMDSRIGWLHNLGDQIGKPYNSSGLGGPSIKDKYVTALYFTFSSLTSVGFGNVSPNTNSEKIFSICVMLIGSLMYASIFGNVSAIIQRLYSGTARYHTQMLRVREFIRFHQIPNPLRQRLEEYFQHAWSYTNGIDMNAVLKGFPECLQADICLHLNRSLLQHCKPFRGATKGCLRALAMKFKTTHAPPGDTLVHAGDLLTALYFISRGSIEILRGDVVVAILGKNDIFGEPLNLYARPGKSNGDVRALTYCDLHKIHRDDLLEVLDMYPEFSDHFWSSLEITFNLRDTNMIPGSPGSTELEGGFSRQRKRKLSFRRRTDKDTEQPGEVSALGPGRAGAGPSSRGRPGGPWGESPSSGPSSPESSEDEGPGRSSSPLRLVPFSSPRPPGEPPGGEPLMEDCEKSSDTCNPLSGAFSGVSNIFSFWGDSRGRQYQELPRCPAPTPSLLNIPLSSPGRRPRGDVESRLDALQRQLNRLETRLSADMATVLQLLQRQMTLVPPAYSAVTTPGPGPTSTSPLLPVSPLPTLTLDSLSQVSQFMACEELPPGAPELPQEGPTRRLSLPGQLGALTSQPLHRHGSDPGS

Cytochrome P450 2B6 = biological target: T1, Cytochrome P450 2B6 (Homo sapiens, UniProt P20813); experiment: Inhibition of CYP2B6 (unknown origin); format: ADME
T1 sequence (P20813 whole entry): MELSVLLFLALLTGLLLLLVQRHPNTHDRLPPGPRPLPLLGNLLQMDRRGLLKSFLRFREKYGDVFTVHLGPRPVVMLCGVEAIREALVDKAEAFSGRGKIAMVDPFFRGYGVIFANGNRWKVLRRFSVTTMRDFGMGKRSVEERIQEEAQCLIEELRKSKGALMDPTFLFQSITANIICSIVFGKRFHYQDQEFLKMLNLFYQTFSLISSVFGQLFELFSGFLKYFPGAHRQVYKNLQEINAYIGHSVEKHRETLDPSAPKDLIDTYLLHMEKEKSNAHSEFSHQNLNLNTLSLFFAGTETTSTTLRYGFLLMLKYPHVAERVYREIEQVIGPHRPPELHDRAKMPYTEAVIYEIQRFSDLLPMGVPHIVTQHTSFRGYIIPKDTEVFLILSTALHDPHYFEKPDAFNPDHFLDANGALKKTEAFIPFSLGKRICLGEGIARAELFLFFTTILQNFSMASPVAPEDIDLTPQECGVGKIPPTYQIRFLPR

Sequence of Tryptophan 2,3-dioxygenase (P48775 whole entry): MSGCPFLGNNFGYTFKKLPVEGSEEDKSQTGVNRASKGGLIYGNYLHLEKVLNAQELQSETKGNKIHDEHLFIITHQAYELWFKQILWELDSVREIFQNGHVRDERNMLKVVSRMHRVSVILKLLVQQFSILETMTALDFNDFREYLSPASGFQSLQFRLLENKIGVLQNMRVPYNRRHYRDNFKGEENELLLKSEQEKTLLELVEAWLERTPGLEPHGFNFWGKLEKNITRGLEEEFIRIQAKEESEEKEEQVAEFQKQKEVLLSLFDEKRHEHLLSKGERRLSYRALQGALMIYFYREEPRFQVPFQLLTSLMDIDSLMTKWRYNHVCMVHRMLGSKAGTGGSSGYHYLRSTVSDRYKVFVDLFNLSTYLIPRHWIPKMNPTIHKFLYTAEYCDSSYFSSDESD

- IC50 [1]: > 6000 nM
- IC50 [2]: 4.6 nM
- Stability [3]: 73%
- Stability [4]: 40%
- Stability [5]: 38%
- IC50 (Cytochrome P450 2B6): 780 nM
Compound: Cc1ccc(NC(=O)Nc2cc(-c3ccccc3-c3nc(=O)[nH]o3)cc3c2OCCCC3c2ccccc2)cc1 (stereo in doubt; 20)
- inhibition (INH) [6]: 18%
